Entries after “also recorded” stand apart in the source; their conditions may differ. Positions of bridges follow the written chain, without caps; N, C: chain ends. No end group written: not given here.
Tests used:
Type in all cases: in vivo, human
[1] = test system: skin conditions of subjects; experiment: Skin-improving (cosmetic) effect of gel formulation applied to face
Protocol: 4.1.1 Confirming Skin-Improving Effect (Comparing B Ring Gel Formulation to BNP Gel Formulation)
The B ring gel formulation or BNP gel formulation was applied to subjects. The B ring gel formulation was applied on the right cheek or eye of each subject, the BNP gel formulation on the left cheek or eye, and changes in skin conditions were observed and compared (Table below). The changes in skin conditions were determined based on physical sensory evaluation by the subject and our objective observation as physicians.
Table below summarizes examples in which B ring gel formulation was applied without applying two-sided. The changes in skin conditions were determined by similar method as described above.
4.1.2 Confirming Skin-Improving Effect (Comparing B Ring Gel Formulation to Gel Base)
In order to examine the presence or absence of the contribution by the gel base to the effects of B ring gel formulation and BNP gel formulation, three subjects were administered B ring gel formulation on their right face and the gel base on the left, and changes in skin conditions on the subject's faces were observed (Table below).

[2] = test system: skin condition of the subjects; experiment: Skin condition upon using bath agent comprising B ring; conditions: bath in 37 to 41° C. hot water with 0.01 μM, once a day for 14 days
Protocol: 4.4 Observation on Skin Condition Upon Using Bath Agent Comprising B Ring
Subjects were given bath in 37 to 41° C. hot water comprising B ring dissolved at 0.01 μM (100 ml of 20 μM B ring solution dissolved in 200 L hot water) once a day for 14 days, and skin condition of the subjects was compared to the case of hot water alone (Table 14). The changes in skin conditions were determined based on physical sensory evaluation by the subject and our objective observation as physicians.

[3] = test system: normal subjects who had symptoms of roughened lips; experiment: Mucosal condition of roughened lips upon application of B ring gel formulation; conditions: 1 application
Protocol: The B ring gel formulation was applied to normal subjects who had symptoms of roughened lips, and changes in mucosal condition were observed (Table below). The changes in mucosal conditions were determined based on physical sensory evaluation by the subject and our objective observation as physicians.

[4] = test system: symptoms associated to various alopecia; experiment: Therapeutic effect on alopecia: gel formulation applied to decalvant site; conditions: 1 μmol, 1 application/day, continued; male alopecia, right side
Protocol: 5. Confirming Therapeutic Effect on Alopecia Either B ring gel formulation or BNP gel formulation was applied, and their effects on symptoms associated to various alopecia were observed (Table below). The changes in symptoms were determined based on physical sensory evaluation by the subject and our objective observation as physicians.

[5] = test system: subjects suffering various dermatitis; experiment: B ring gel formulation versus gel base by two-sided application in dermatitis; conditions: right side B ring, left side gel base; atopic dermatitis or chronic eczema
From the text: 3.2 Comparing B Ring Gel Formulation to Gel Base by Two-Sided Application For subjects suffering various dermatitis, either B ring gel formulation or the gel base was applied to the affected site, and changes in symptoms before and after the application were observed (Table below).

[6] = test system: normal subjects who had symptoms of scalp/hair; experiment: Scalp/hair condition upon application of B ring gel formulation
Protocol: 4.3 Observation on scalp/hair condition upon application of B ring gel formulation. The B ring gel formulation was applied to normal subjects who had symptoms of scalp/hair, and changes in conditions of scalp and hair were observed (Table below). The changes in scalp/hair were determined based on physical sensory evaluation by the subject and our objective observation as physicians.

skin, affected site = experiment: Cyclic peptides with amino acid replacement: effects on skin (formulations A to E = 3, 15, 30, 100, 500 μg/ml in purified water)
Protocol: Next, cyclic peptides with some replaced amino acid were subjected to following examination in order to confirm their effect. The methods for preparing the above cyclic peptide and confirming amino acid sequence of the prepared peptide were same as the method for preparing the cyclic peptide as described above and Mass spectroscopy method.
9.2 Confirming Effects on Skin
The obtained cyclic peptide was prepared in purified water at 3, 15, 30, 100 or 500 μg/ml and applied to affected site. Each of formulations A to E in the table indicates the concentration of the cyclic peptide at 3, 15, 30, 100 or 500 μg/ml, respectively. The absence of the effect upon the application of purified water without the peptide confirmed the effect was not a placebo effect.

[7] = formulation C = 30 μg/ml cyclic peptide in purified water, applied to affected site, one line per subject (ID Q..), diagnosis and treatment as in the table line
[8] = eczema, formulation C (30 μg/ml in purified water), once a day
[9] = atopic dermatitis, formulation C (30 μg/ml in purified water), once a day
[10] = chronic eczema, formulation C (30 μg/ml in purified water), once a day
[11] = roughened skin, formulation C (30 μg/ml in purified water), once a day

Substance: Cys-Phe-Gly-Arg-Lys-Met-Asp-Arg-Ile-Ser-Ser-Ser-Ser-Gly-Leu-Gly-Cys (CFGRKMDRISSSSGLGC; disulfide 1-17; ends not checked) [B ring]
- Skin-improving effect, summary ([1]; compared to site where BNP gel formulation had been applied, FIG. 1): has a skin moisturizing effect and is capable of improving skin texture
- Post-application symptoms (skin condition) ([1]; concentration not printed (about 1 μM), right face, gel base on the left): 1 min after application, skin tingling sensation
- Changes in subjective symptoms [2]: Remission of itch and pain; also recorded: Relief of pain; also recorded: Itches after bath was remitted
- Post-application symptoms [2]: ameliorating effect on miliaria, cracked or chapped skin; also recorded: Remission of desiccatinn; also recorded: Remission of flare and milaria; also recorded: Cracks gradually became; also recorded: Gradual remission of erythema
- Post-application symptoms (lips, mucosal condition) ([3]; 0.5 μmol): 3 min after application, lips became moisturized.
- Post-application symptoms (lips, mucosal condition) ([3]; 1 μmol): 2 min after application, cracks on mouth corner were remitted and Skin became moisturized soon after application. After 2 min,
- Post-application symptoms (lips, mucosal condition) ([3]; 2 μmol): After 2 min, lips were full and soft, and wrinkles were less; also recorded: After 2 min, lips were full, soft and moisturized, and wrinkles
- Post-application symptoms (alopecia) [4]: 7 weeks after application, hair became elastic and formulation exhibited more remarkable hair-
- Post-application symptoms [5]: Flare remitted soon after application. After; also recorded: Flare started to fade soon after application,; also recorded: Flare remitted soon after application,; also recorded: Flare and pigmentation removed 2.5 min after
- Post-application symptoms (scalp/hair) ([6]; 1 μmol, 1 application/day (5 days, 3 weeks or continued), daily for 3 weeks): Hair growth was stimulated, and an increase in hair volume
- Post-application symptoms (scalp/hair) ([6]; 1 μmol, 1 application/day (5 days, 3 weeks or continued), daily for 5 days): A decrease in falling hair was observed, showing an effect
- Post-application symptoms (scalp/hair) ([6]; 1 μmol, 1 application/day (5 days, 3 weeks or continued), daily, continued post partum): growth was stimulated, improving thinning of hair.
- Post-application symptoms (scalp/hair) ([6]; 2 μmol, 1 application): After 2 min, itches were removed, scalp seborrhea and; also recorded: After 1 min. itches were removed. After 2 min, scalp; also recorded: After 2 min, itches were removed, scalp seborrhea was improved

Substance: SEQ ID NO 16 (CFVRKMDRISSSSGLGC; disulfide 1-17)
- Diagnostic impression on skin after application (skin, affected site; [7]): After 3 minutes, erythema was remitted.

Substance: SEQ ID NO 18 (CFGHKMDRISSSSGLGC; disulfide 1-17)
- Diagnostic impression on skin after application (skin, affected site; [7]): After 2 minutes, redness was remitted.

Substance: SEQ ID NO 26 (CFGRKMDRISSVSGLGC; disulfide 1-17)
- Diagnostic impression on skin after application (skin, affected site; [7]): After 2 minutes, remitted.

Substance: SEQ ID NO 39 (CFSRKMDRISSSSGLGC; disulfide 1-17)
- Diagnostic impression on skin after application (skin, affected site; [7]): After 3 minutes, nodes were flattened.

Substance: SEQ ID NO 42 (CFGRKMDRISSASGLGC; disulfide 1-17)
- Diagnostic impression on skin after application (skin, affected site; acne, formulation C (30 μg/ml in purified water), once a day): After 1 minute, redness was remitted.
- Itches after application (skin, affected site; atopic dermatitis, formulation B (15 μg/ml in purified water), once a day): Iches were eliminated
- Diagnostic impression on skin after application (skin, affected site; [8]): After 3 minutes, erythema and dry skin

Substance: SEQ ID NO 43 (CFGRKMDRISSSTGLGC; disulfide 1-17)
- Diagnostic impression on skin after application (skin, affected site; [9]): After 2 minutes, no discomfort, felt
- Itches after application (skin, affected site; [9]): After 3 minutes,
- Diagnostic impression on skin after application (skin, affected site; [8]): After 1 minute, redness and infiltration
- Itches after application (skin, affected site; [8]): Iches were eliminated
- Diagnostic impression on skin after application (skin, affected site; rosacae/acne, formulation C (30 μg/ml in purified water), once a day): After 7 minutes, acne was reduce and
- Diagnostic impression on skin after application (skin, affected site; roughened lips, formulation C (30 μg/ml in purified water), once a day): 1 minute after application, dry skin
- Diagnostic impression on skin after application (skin, affected site; roughened skin, formulation B (15 μg/ml in purified water), once a day): After 3 minutes, redness and dry skin

Substance: SEQ ID NO 44 (CFGRKMDRISSSAGLGC; disulfide 1-17)
- Diagnostic impression on skin after application (skin, affected site; [8]): After 1 minute, erythema and infiltration
- Itches after application (skin, affected site; [8]): Iches were remitted
- Diagnostic impression on skin after application (skin, affected site; healthy skin, formulation B (15 μg/ml in purified water), once a day): Skin got moisturized promptly, wrinkles

Substance: SEQ ID NO 47 (CFSRKMDRISSSTGLGC; disulfide 1-17)
- Diagnostic impression on skin after application (skin, affected site; [10]): Immediately after application, erythema

Substance: SEQ ID NO 49 (CFSRKMDRISSSSGLAC; disulfide 1-17)
- Diagnostic impression on skin after application (skin, affected site; [10]): Immediately after application, erythema

Substance: SEQ ID NO 53 (CFGRRMDRISSSSGLAC; disulfide 1-17)
- Diagnostic impression on skin after application (skin, affected site; [8]): After 1 minute, erythema and infiltration

Substance: SEQ ID NO 58 (CFGRKMDRISSSSGIAC; disulfide 1-17)
- Diagnostic impression on skin after application (skin, affected site; [8]): After 2 minutes, erythema, scales,

Substance: SEQ ID NO 60 (CFSRRMDRISSSTGLGC; disulfide 1-17)
- Diagnostic impression on skin after application (skin, affected site; [10]): Immediately after application, erythema

Substance: SEQ ID NO 61 (CFSRRMDRISSSSGIGC; disulfide 1-17)
- Diagnostic impression on skin after application (skin, affected site; chronic, formulation C (30 μg/ml in purified water), once a day): Immediately after application, erythema

Substance: SEQ ID NO 63 (CFSRKMDRISSTSGIGC; disulfide 1-17)
- Diagnostic impression on skin after application (skin, affected site; eczema, formulation B (15 μg/ml in purified water), once a day): After 3 minutes, erythema and scales

Substance: SEQ ID NO 64 (CFSRKMDRISSSTGIGC; disulfide 1-17)
- Diagnostic impression on skin after application (skin, affected site; [10]): Immediately after application, erythema

Substance: SEQ ID NO 65 (CFSRKMDRISSSTGLAC; disulfide 1-17)
- Diagnostic impression on skin after application (skin, affected site; [11]): After 1 minute, skin got moisturized and

Substance: SEQ ID NO 68 (CFGRRMDRISSTSGLAC; disulfide 1-17)
- Diagnostic impression on skin after application (skin, affected site; [10]): Immediately after application, erythema

Substance: SEQ ID NO 69 (CFGRRMDRISSSTGIGC; disulfide 1-17)
- Diagnostic impression on skin after application (skin, affected site; [8]): After 2 minutes, erythema, scales,

Substance: SEQ ID NO 70 (CFGRRMDRISSSTGLAC; disulfide 1-17)
- Diagnostic impression on skin after application (skin, affected site; [10]): immediately after application, erythema
- Diagnostic impression on skin after application (skin, affected site; [11]): Redness vanished in 30 seconds. After 1

Substance: SEQ ID NO 72 (CFSRRMDRISSTSGLAC; disulfide 1-17)
- Diagnostic impression on skin after application (skin, affected site; [10]): Immediately after application, erythema,

Substance: SEQ ID NO 73 (CFSRRMDRISSSTGIGC; disulfide 1-17)
- Diagnostic impression on skin after application (skin, affected site; [10]): Immdediately after application, erythema

Substance: SEQ ID NO 74 (CFSRRMDRISSSTGLAC; disulfide 1-17)
- Diagnostic impression on skin after application (skin, affected site; chronic eczema, formulation D (100 μg/ml in purified water), once a day): Iches were eliminated immediately after
- Diagnostic impression on skin after application (skin, affected site; [11]): After 1 minute, rawness and hot flash

Substance: SEQ ID NO 75 (CFSRRMDRISSSSGIAC; disulfide 1-17)
- Diagnostic impression on skin after application (skin, affected site; [8]): After 2 minutes, erythema, scalesm

Substance: Ser-Pro-Lys-Met-Val-Gln-Gly-Ser-Gly-Cys-Phe-Gly-Arg-Lys-Met-Asp-Arg-Ile-Ser-Ser-Ser-Ser-Gly-Le u-Gly-Cys-Lys-Val-Leu-Arg-Arg-His [BNP, reference compound]
- Changes in subjective symptoms [2]: No subjective remission of skin
- Post-application symptoms [2]: No remission of skin desiccation
